Results from ChEMBL document CHEMBL1137327, “Optimization of chromone-2-carboxamide melanin concentrating hormone receptor 1 antagonists: assessment of potency, efficacy, and cardiovascular safety” (J Med Chem, 2006).
Active and inactive are the calls of the source. The rule behind the calls is not given here.

Columns and labels:
[1] = target: T1, Melanin-concentrating hormone receptor 1 (Homo sapiens, UniProt Q99705); experiment: Displacement of [125I]MCH from MCHr1 expressed in IMR32 cells; type: cell-based, IMR-32
T1 sequence (Q99705 whole entry): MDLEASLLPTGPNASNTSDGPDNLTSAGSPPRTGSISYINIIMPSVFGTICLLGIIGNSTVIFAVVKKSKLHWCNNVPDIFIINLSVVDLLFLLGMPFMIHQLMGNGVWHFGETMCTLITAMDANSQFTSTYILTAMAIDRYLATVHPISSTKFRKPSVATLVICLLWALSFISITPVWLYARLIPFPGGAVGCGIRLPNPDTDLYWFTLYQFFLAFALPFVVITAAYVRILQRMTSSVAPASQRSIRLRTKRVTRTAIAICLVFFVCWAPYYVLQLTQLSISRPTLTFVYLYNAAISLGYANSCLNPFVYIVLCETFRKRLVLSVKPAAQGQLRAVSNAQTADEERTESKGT

[2] = target: T1, Melanin-concentrating hormone receptor 1; experiment: Antagonist activity at MCHr1 assessed as inhibition of MCH-mediated calcium ion release in intact IMR32 cells by FLIPR assay; type: functional, cell-based, IMR-32
Rattus norvegicus [3] = experiment: Drug level in anesthetized Sprague-Dawley rat plasma; type: ADME, organism-based; settings: in vivo
Rattus norvegicus [4] = experiment: Drug level in anesthetized Sprague-Dawley rat brain; type: ADME, organism-based; settings: in vivo
[5] = Cmax in C57BL/6J DIO mouse plasma at 10 mg/kg, po; type: ADME, organism-based; parameters: dose 10 mg/kg, route oral; settings: read-out: Cmax
[6] = Half life in C57BL/6J DIO mouse plasma at 10 mg/kg, po; type: ADME, organism-based; parameters: dose 10 mg/kg, route oral
[7] = Cmax in C57BL/6J DIO mouse brain at 10 mg/kg, po; type: ADME, organism-based; parameters: dose 10 mg/kg, route oral
[8] = Half life in C57BL/6J DIO mouse brain at 10 mg/kg, po; type: ADME, organism-based; parameters: dose 10 mg/kg, route oral
Mus musculus [9] = experiment: AUC in C57BL/6J DIO mouse brain at 10 mg/kg, po; type: ADME, organism-based; parameters: dose 10 mg/kg, route oral; settings: in vivo
[10] = Ratio of AUC in brain to plasma of C57BL/6J DIO mouse at 10 mg/kg, po; type: ADME, organism-based; parameters: dose 10 mg/kg, route oral; settings: brain and plasma, read-out: Ratio AUC
Mus musculus [11] = experiment: Decrease in body weight of C57BL/6J DIO mouse at 10 mg/kg, po after 14 days relative to control; type: functional; parameters: scale not given: the % may be the effect or the level left
Mus musculus [12] = experiment: Decrease in body weight of C57BL/6J DIO mouse at 30 mg/kg, po after 14 days relative to control; type: functional; parameters: scale not given: the % may be the effect or the level left
[13] = Drug level in C57BL/6J DIO mouse plasma at 10 mg/kg, po after 14 days; type: ADME, organism-based; parameters: dose 10 mg/kg, route oral
[14] = Drug level in C57BL/6J DIO mouse plasma at 30 mg/kg, po after 14 days; type: ADME, organism-based; parameters: dose 30 mg/kg, route oral
[15] = Drug level in C57BL/6J DIO mouse brain at 10 mg/kg, po after 14 days; type: ADME, organism-based; parameters: dose 10 mg/kg, route oral; settings: read-out: Drug uptake
[16] = Drug level in C57BL/6J DIO mouse brain at 30 mg/kg, po after 14 days; type: ADME, organism-based; parameters: dose 30 mg/kg, route oral; settings: read-out: Drug uptake
Mus musculus [17] = experiment: Decrease in food intake of C57BL/6J DIO mouse at 10 mg/kg, po relative to control; type: functional; parameters: scale not given: the % may be the effect or the level left
Mus musculus [18] = experiment: Decrease in food intake of C57BL/6J DIO mouse at 30 mg/kg, po relative to control; type: functional; parameters: scale not given: the % may be the effect or the level left
Mus musculus [19] = experiment: Decrease in body weight of C57BL/6J DIO mouse at 1 mg/kg, po relative to control; type: functional, organism-based; parameters: dose 1 mg/kg
Mus musculus [20] = experiment: Decrease in body weight of C57BL/6J DIO mouse at 3 mg/kg, po relative to control; type: functional, organism-based; parameters: dose 3 mg/kg
Rattus norvegicus [21] = experiment: Decrease in mean arterial pressure in anesthetized Sprague-Dawley rat at 60 mg/kg; type: functional, Artery; parameters: scale not given: the % may be the effect or the level left

Compound | IC50 [1] [nM] | IC50 [2] [nM] | other results
COc1ccc2c(=O)cc(C(=O)NC3CCC(CNCc4ccc5c(c4)OCO5)CC3)oc2c1 (stereo not given) | > 2000 |  | 
O=C(NC1CCN(Cc2ccc3c(c2)OCO3)CC1)c1cc(=O)c2cc(F)cc(F)c2o1 | 99 | 2720 | 
O=C(NC1CCN(Cc2cccc3c2OCO3)CC1)c1cc(=O)c2ccc(F)cc2o1 | > 700 |  | 
O=C(NC1CCN(Cc2ccccc2F)CC1)c1cc(=O)c2ccc(F)cc2o1 | 566 | 2150 | 
O=C(NC1CCN(Cc2ccc3c(c2)OCO3)CC1)c1cc(=O)c2cc(C(F)(F)F)ccc2o1 | 351 |  | 
COc1ccc2c(=O)cc(C(=O)NCC3CCN(Cc4ccc5c(c4)OCO5)C3)oc2c1 (stereo not given) | 1140 | 8300 | 
COc1ccc2c(=O)cc(C(=O)NC3CCN(Cc4ccc5c(c4)OCO5)C3)oc2c1 (stereo not given) | > 2000 |  | 
COc1ccc2c(=O)cc(C(=O)N3CCN(Cc4ccc5c(c4)OCO5)CC3)oc2c1 | > 2000 |  | 
COc1ccc(CN2CCC(NC(=O)c3cc(=O)c4ccc(F)cc4o3)CC2)cc1OC | 427 |  | 
O=C(NC1CCN(Cc2ccc3c(c2)OCO3)CC1)c1cc(=O)c2ccc(C(F)(F)F)cc2o1 | 178 | 3070 | 
CC(=O)Nc1ccc(CN2CCC(NC(=O)c3cc(=O)c4ccc(F)cc4o3)CC2)cc1 | 1690 | > 10000 | 
Cc1ccc2oc(C(=O)NC3CCN(Cc4ccc5c(c4)OCO5)CC3)cc(=O)c2c1 | 393 |  | 
O=C(NC1CCN(Cc2ccc3c(c2)OCO3)CC1)c1cc(=O)c2cc(OC(F)(F)F)ccc2o1 | 132 | > 9000 | 

Compounds with a lower IC50 [1], results first:

IC50 [1] [nM] | IC50 [2] [nM] | Compound | other results
91 | 418 | O=C(NC1CCN(Cc2ccc3c(c2)OCO3)CC1)c1cc(=O)c2cc(F)c(F)c(F)c2o1 | 
75 | 4750 | O=C(NC1CCN(Cc2ccc3c(c2)OCO3)CC1)c1cc(=O)c2c(Cl)c(Cl)ccc2o1 | 
60 | 592 | O=C(NC1CCN(Cc2ccccc2)CC1)c1cc(=O)c2ccc(F)cc2o1 | 
57 | 601 | O=C(NC1CCN(Cc2ccc3c(c2)OC(F)(F)O3)CC1)c1cc(=O)c2ccc(F)cc2o1 | 
53 | 411 | COc1ccc(CN2CCC(NC(=O)c3cc(=O)c4ccc(F)cc4o3)CC2)c(F)c1 | 
47 | 137 | N#Cc1ccc2c(=O)cc(C(=O)NC3CCN(Cc4ccc5c(c4)OCO5)CC3)oc2c1 | 
11 | 73 | COc1ccc2c(=O)cc(C(=O)NC3CCN(Cc4ccc5c(c4)OCO5)CC3)oc2c1 | Cp (Rattus norvegicus [3]): 29000 ng/mL; Drug uptake (Rattus norvegicus [4]): 158 µg/g; Cmax [5]: 3600 ng/mL; half-life [6]: 3.1 h; Cmax [7]: 548 ng/g; half-life [8]: 4.9 h; AUC (Mus musculus [9]): 4398 ng·h/g; Kp [10]: 0.24; Activity (Mus musculus [11]): 7.3%; Activity (Mus musculus [12]): 15.9%; concentration at 336 h [13]: 10100 ng/mL; concentration at 336 h [14]: 32900 ng/mL; concentration at 336 h [15]: 4900 ng/g; concentration at 336 h [16]: 27100 ng/g; Activity (Mus musculus [17]): 16%; Activity (Mus musculus [18]): 37%; Activity (Mus musculus [19]): inactive; Activity (Mus musculus [20]): inactive
3 | 71 | O=C(NC1CCN(Cc2ccc3c(c2)OCO3)CC1)c1cc(=O)c2cc(F)c(Cl)cc2o1 | 
2 | 67 | Cc1c(C(=O)NC2CCN(Cc3ccc4c(c3)OCO4)CC2)oc2cc(Cl)ccc2c1=O | 
2 | 13 | O=C(NC1CCN(Cc2ccc3c(c2)OCO3)CC1)c1cc(=O)c2cc(F)c(F)cc2o1 | Cp (Rattus norvegicus [3]): 34000 ng/mL; Drug uptake (Rattus norvegicus [4]): 25 µg/g; Activity (Rattus norvegicus [21]): >15%
